Measured values from patent publication US8633250B2, “Cell repair and regeneration by suramin and related polysulfonated napthylureas” (MUSC Foundation for Research Development, priority 2006, dated 2014).

Legend:
[1] = system: Akt; assay: Immunoblot of Akt phosphorylation in RPTC; assay type: cell-based, rabbit; settings: for effect of inhibitor on Akt phosphorylation: pretreated 1 hr with 20 μM LY294002, or 10 μM PP1, or AG1478, 50 μM suramin 30 min
Protocol: (§1) Preparation of cell lysates and immunoblot analysis: After different treatments, RPTC were washed twice with PBS and harvested in lysis buffer (0.25 M Tris-HCl, pH 6.8, 4% SDS, 10% glycerol, 1 mg/ml bromophenol blue, and 0.5% 2-mercaptoethanol). Cells were disrupted by sonication for 15 seconds and lysates stored at −20 °C. Equal amounts of cellular protein lysate were separated on 10% polyacrylamide gels and transferred to nitrocellulose membranes. After treatment with 5% skim milk at 4 °C overnight, membranes were incubated with various antibodies for 1 hr, and then incubated with an appropriate horseradish-peroxidase conjugated secondary antibody (Amersham, Piscataway, N.J.). Bound antibodies were visualized following chemiluminescence detection on autoradiographic film.
We evaluated whether the PI3K/Akt and/or ERK1/2 pathways are activated in RPTC in response to suramin. The activation of the PI3K and ERK1/2 pathways was measured using immunoblot analysis and antibodies that recognize phosphorylated Akt at serine 473 (a target of PI3K) and ERK1/2, respectively. Total Akt and ERK1/2 content was measured using immunoblot analysis and antibodies that recognize the Akt and ERK1/2 independent of their phosphorylation state to control for gel loading. Suramin-induced Akt phosphorylation within 10 min, reached a maximum at 30 min and was sustained through 120 min of treatment (FIG. 6A). ERK1/2 phosphorylation also was induced within 10 min and maximal at 30 min, but decreased to the control levels at 120 min.

[2] = system: Src; assay: Immunoblot of Src phosphorylation (Tyr416, Tyr527) in RPTC; assay type: cell-based, rabbit
Protocol: as §1
To determine whether suramin activates Src and whether Src mediates Akt activation, we examined the effect of suramin on Src phosphorylation and the effect of PP1 on suramin-induced Akt phosphorylation. Src activation requires dephosphorylation of tyrosine 527 (Zheng et al., 2000) and phosphorylation of tyrosine 416 in the catalytic domain (Leu and Maa, 2003). Src phosphorylation at tyrosine 416 was detected in control samples. Following suramin-treatment, Src phosphorylation increased within 10 min and returned to the basal level at 60 min (FIG. 8A). […] Thus, suramin-induced RPTC proliferation and scattering is dependent on Src activity and Src is required for activation of the PI3K/Akt signaling pathway.

[3] = system: renal proximal tubule cells (RPTC); assay: Cell cycle analysis by flow cytometry: number of RPTC in S-phase; assay type: cell-based, rabbit; settings: for effect of inhibitor on suramin-induced RPTC proliferation (number of RPTC in S-phase): 50 μM suramin 24 hr, 20 μM LY294002, 10 μM U0126 or 10 μM PP1
Protocol: (§2) Isolation and culture of renal proximal tubules: Isolation and culture of renal proximal tubules were performed as described previously (Rodeheaver et al., 1990; Nowak and Schnellmann, 1995; Nowak and Schnellmann, 1996). Female New Zealand White rabbits (1.5-2.5 kg) were purchased from Myrtle's Rabbitry (Thompson Station, Tenn.). RPTC were isolated using the iron oxide perfusion method and grown in 6-well tissue culture dishes under improved conditions. The culture medium was an 1:1 mixture of DMEM/Ham's F-12 (without glucose, phenol red, or sodium pyruvate) supplemented with 15 mM HEPES buffer, 2.5 mM L-glutamine, 1 μM pyridoxine HCl, 15 mM sodium bicarbonate, and 6 mM lactate. Hydrocortisone (50 μM), selenium (5 ng/ml), human transferrin (5 μg/ml) bovine insulin (10 nM) and L-ascorbic acid-2-phosphate (50 μM) were added daily to fresh culture medium.
(§3) Isolated tubules were plated at 1 mg protein/well in a 6-well plate. On day 2, RPTC were incubated in the presence and absence of various pharmacological inhibitors for different time periods as indicated in the figure legends. For some experiments, suramin was added to RPTC on day 3 and then incubated for 24 hr in the presence or absence of various inhibitors before samples were taken.
Cell cycle analysis: Cell cycle phase was determined using flow cytometry as previously described (Zhuang et al., 2004). Cells were harvested, stained with propidium iodide and the number of cells in S-phase of cell cycle determined.

[4] = system: renal proximal tubule cells (RPTC); assay: RPTC scattering, fibroblast-like morphology and lamellipodia (bright field, phalloidin staining); assay type: cell-based, rabbit; settings: for effect of inhibitor on suramin-induced fibroblast-like phenotype and RPTC scattering: 50 μM suramin 24 hr, 10 μM AG1478, 20 μM LY294002, 10 μM U0126 or 10 μM PP1
Protocol: as §2, §3
Immunocytochemistry: After various treatments, RPTC were fixed with 10% buffered formalin, washed, permeabilized, and blocked with BSA. Fluorescein conjugated phalloidin was added and RPTC visualized by fluorescent microscopy.

[5] = system: mouse renal ischemic/reperfusion (I/R) acute renal failure model; assay: Mouse renal ischemic/reperfusion (I/R) acute renal failure model, serum creatinine; assay type: in vivo
Protocol: Experiments were designed to investigate whether suramin stimulated recovery of renal function in a mouse renal ischemic/reperfusion (I/R) acute renal failure model. Male C57BL/6 mice weighing 25-30 g were subjected to I/R injury using bilateral renal artery clamping for 26 min and then allowed to recover over time. The renal pedicles were isolated, but no clamps were applied in the sham group. Some mice subjected to I/R were treated with a single intravenous dose of suramin (0.001-10 mg/kg) or diluent 24 hr after reperfusion. Blood was collected at 24 and 48 hr after injury and serum creatinine levels measured as a marker of acute renal failure.

[6] = system: renal proximal tubule cells (RPTC); assay: RPTC outgrowth from plated renal proximal tubules (photographs); assay type: cell-based, rabbit; settings: after 24 hr exposed for 24 hr, 50 μM suramin, 10 ng/ml EGF or suramin+EGF
Protocol: as §2, §3

[7] = system: renal proximal tubule cells (RPTC); assay: MTT assay of RPTC proliferation; assay type: cell-based, rabbit; settings: for effect of inhibitor on suramin-induced RPTC proliferation (MTT assay): 50 μM suramin 48 hr, 10 μM AG1478, 20 μM LY294002, 10 μM U0126 or 10 μM PP1
Protocol: as §2, with “[…],” for “Schnellmann,”, “medium. Isolated tubules were plated at 1 mg protein/well in a 6-well plate. On day 2, RPTC were incubated in the presence and absence of various pharmacological inhibitors for different time periods as indicated in the figure legends. […] MTT assay: The 3-(4,5-dimethylthiazol-2-yl)-2,5-diphenyl-tetrazolium bromide (MTT) assay was used to assess cell proliferation (Kooistra et al., 1997; […] et al., 2002). Following a 48 hr exposure to various inhibitors or diluents, MTT was added (final concentration of 0.5 mg/ml) to individual cultures for an additional 30 min. Tetrazolium was released by dimethyl sulfoxide and optical density was determined with a spectrophotometer (570 nm). Data were normalized to diluent-treated cultures.” for “medium.”

[8] = system: EGF receptor; assay: Immunoblot of EGF receptor phosphorylation (Tyr1068) in RPTC; assay type: cell-based, rabbit
Protocol: as §1
To determine whether suramin caused EGF receptor activation, we performed immunoblot analysis using an antibody against phosphorylated tyrosine 1068 of the EGF receptor. Total EGF receptor content was measured using immunoblot analysis and an antibody that recognizes the EGF receptor independent of its phosphorylation state to control for gel loading. […] Thus, suramin induced RPTC proliferation and scattering is not through the EGF receptor.

[9] = system: ERK1/2; assay: Immunoblot of ERK1/2 phosphorylation in RPTC; assay type: cell-based, rabbit
Protocol: as §1
We evaluated whether the PI3K/Akt and/or ERK1/2 pathways are activated in RPTC in response to suramin. The activation of the PI3K and ERK1/2 pathways was measured using immunoblot analysis and antibodies that recognize phosphorylated Akt at serine 473 (a target of PI3K) and ERK1/2, respectively. Total Akt and ERK1/2 content was measured using immunoblot analysis and antibodies that recognize the Akt and ERK1/2 independent of their phosphorylation state to control for gel loading.

**Q.** Which results are given for `Cc1ccc(C(=O)Nc2ccc(S(=O)(=O)O)c3cc(S(=O)(=O)O)cc(S(=O)(=O)O)c23)cc1NC(=O)c1cccc(NC(=O)Nc2cccc(C(=O)Nc3cc(C(=O)Nc4ccc(S(=O)(=O)O)c5cc(S(=O)(=O)O)cc(S(=O)(=O)O)c45)ccc3C)c2)c1` [suramin]?
**A.** Akt phosphorylation sustained through ([1]; 50 μM suramin, 0-120 min): ≥ 120 min; time of maximum Akt phosphorylation ([1]; 50 μM suramin, 0-120 min): 30 min; time to induction of Akt phosphorylation ([1]; 50 μM suramin, 0-120 min): ≤ 10 min; reduced phosphorylation of Src at tyrosine 527 sustained through ([2]; 50 μM suramin): ≥ 120 min; time at which Src phosphorylation (tyrosine 416) returned to the basal level ([2]; 50 μM suramin): 60 min; time to increase of Src phosphorylation at tyrosine 416 ([2]; 50 μM suramin): ≤ 10 min; time to reduced phosphorylation of Src at tyrosine 527 ([2]; 50 μM suramin): ≤ 5 min; RPTC proliferation (S-phase) ([3]; 100 μM suramin, 24 hr, compared with 50 μM): did not further increase RPTC proliferation; RPTC in S-phase ([3]; 24 hr treatment, four days following plating, suramin 50 μM, EGF 10 ng/ml, untreated approximately 20%): 29%; number of RPTC in S-phase ([3]; suramin concentrations lower than 50 μM, 24 hr): did not statistically increase the number of RPTC in S-phase; formation of lamellipodia and intercellular contacts ([4]; 50 μM suramin or 10 ng/ml EGF, 24 hr, phalloidin staining): increased the formation of lamellipodia and decreased intercellular contacts; RPTC morphology at the edge of the cell island (scattering) ([4]; 50 μM suramin, 24 hr, RPTC cultured 3 days): lost contact with their neighbors and became elongated, fibroblast-like cells; renal function ([5]; doses of suramin greater than or equal to 0.1 mg/kg, single intravenous dose 24 hr after reperfusion): completely restored renal function; recovery of renal function ([5]; low doses (0.1 mg/kg), given after acute renal failure is fully established): complete recovery of renal function; serum creatinine levels ([5]; single intravenous suramin dose between 0.003 and 0.03 mg/kg 24 hr after reperfusion, I/R plus diluent approximately 2 mg/dl): approximately 1 mg/dl; RPTC outgrowth [6]: stimulated RPTC outgrowth; increase in the number of RPTC (MTT assay) ([7]; 48 hr exposure, 50 μM suramin, versus diluent controls): approximately 40%; EGF receptor phosphorylation (tyrosine 1068) ([8]; 50 μM suramin, 10 ng/ml EGF or both for 10 min): did not detect phosphorylated EGF receptor; time at which ERK1/2 phosphorylation decreased to the control levels ([9]; 50 μM suramin, 0-120 min): 120 min; time of maximal ERK1/2 phosphorylation ([9]; 50 μM suramin, 0-120 min): 30 min; time to induction of ERK1/2 phosphorylation ([9]; 50 μM suramin, 0-120 min): ≤ 10 min

**Q.** What does the source list for `COc1cc2ncnc(Nc3cccc(Cl)c3)c2cc1OC` [AG1478, 4-(3-chloroanilino)-6,7-dimethoxyquinazoline]?
**A.** effect of inhibitor on Akt phosphorylation [1]: did not affect suramin-induced phosphorylation of Akt; effect of inhibitor on EGF-induced fibroblast-like phenotype and scattering ([4]; 10 ng/ml EGF 24 hr, 10 μM AG1478): blocked EGF-induced formation of the fibroblast-like phenotype and scattering; effect of inhibitor on suramin-induced fibroblast-like phenotype and RPTC scattering [4]: did not affect suramin-induced formation of the fibroblast-like phenotype and scattering; effect of inhibitor on suramin-induced RPTC proliferation (MTT assay) [7]: did not affect suramin-induced RPTC proliferation; effect of inhibitor on EGF-induced EGF receptor phosphorylation ([8]; pretreated with 10 μM AG1478 for 1 hr, then EGF 10 min): inhibited EGF-induced EGF receptor phosphorylation

**Q.** What does the source list for `O=c1cc(N2CCOCC2)oc2c(-c3ccccc3)cccc12` [LY294002, 2-(4-Morpholinyl)-8-phenyl-4H-1-benzopyran-4-one]?
**A.** effect of inhibitor on Akt phosphorylation [1]: blocked Akt phosphorylation; effect of inhibitor on suramin-induced RPTC proliferation (number of RPTC in S-phase) [3]: decreased suramin-induced proliferation; effect of inhibitor on suramin-induced fibroblast-like phenotype and RPTC scattering [4]: partially inhibited; effect of inhibitor on suramin-induced RPTC proliferation (MTT assay) [7]: decreased suramin-induced proliferation

**Q.** Which results are given for `N#CC(=C(N)Sc1ccccc1N)C(C#N)=C(N)Sc1ccccc1N` [U0126, 1,4-Diamino-2,3-dicyano-1,4-bis(2-aminophenylthio)butadiene]?
**A.** effect of inhibitor on suramin-induced RPTC proliferation (number of RPTC in S-phase) [3]: had no effect on proliferation; effect of inhibitor on suramin-induced fibroblast-like phenotype and RPTC scattering [4]: had no effect; effect of inhibitor on suramin-induced RPTC proliferation (MTT assay) [7]: had no effect on proliferation; effect of inhibitor on ERK1/2 phosphorylation ([9]; pretreated with 10 μM U0126 for 1 hr, presence and absence of 50 μM suramin (30 min)): blocked ERK1/2 phosphorylation

**Q.** What does the source list for `Cc1ccc(-c2nn(C(C)(C)C)c3ncnc(N)c23)cc1` [PP1]?
**A.** effect of inhibitor on Akt phosphorylation [1]: blocked suramin-induced phosphorylation of Akt; effect of inhibitor on suramin-induced Src phosphorylation ([2]; PP1, suramin-treated RPTC): inhibition of suramin-induced Src and Akt phosphorylation; effect of inhibitor on suramin-induced RPTC proliferation (number of RPTC in S-phase) [3]: inhibited RPTC proliferation in control and suramin-treated cells; effect of inhibitor on suramin-induced fibroblast-like phenotype and RPTC scattering [4]: blocked; effect of inhibitor on suramin-induced RPTC proliferation (MTT assay) [7]: inhibited RPTC proliferation in control and suramin-treated cells
